Data: patent US20090227534A1, “Pharmaceutical Composition Comprising the Combination of a Ketorolac Salt and Vitamins of the-B-Complex for the Treatment of Neuralgia” (LABORATORIOS SENOSITAN S.A. DE C.V., priority 2006, published 2009)
Where two headings read alike, the source gives them in different places.

Legend:
[1] = Solubility of ketorolac in water; format: physicochemical
Excerpt: (§1) Clinical studies have shown that ketorolac is a strong and effective analgesic. […] Ketorolac is one of the few non-steroidal anti-inflammatory drugs approved for parenteral administration. However, when administered in combination with other substances, it usually presents stability problems.

[2] = Laboratory stability tests: ketorolac with acid solutions, direct combination with B-complex, light exposure; format: physicochemical
Method: as §1
Currently, there are no individual pharmaceutical forms for the parenteral administration of ketorolac at 15 mg/ml and B-complex, as described in this invention.
The above situation makes impossible to simply combine ketorolac and B-complex, making it necessary to research and develop a system that provides appropriate stability characteristics for parenteral administration.

rat paw = experiment: Antinociceptive effect, heat-stimulation model in the rat paw (carrageen); format: in vivo; settings: oral, measured for 6 hours
Method: Methodology: We worked with five groups of 8 rats each. The antinociceptive effect was evaluated through the heat-stimulation model in the rat paw. Used substances: saline solution, carrageen to produce the nociceptive effect (pain), ketorolac, riboflavin and B-complex (vitamins B1, B6 and B12). For the doses-response curve, each group received a ketorolac dose so that 0.32, 1, 1.8, 3.2 y 10 mg/kg of weight were administrated orally. The antinociceptive effect was measured for 6 hours. Latency time curves were plot on a graph (the time rat takes before moving […] its paw to avoid the pain) as a function of time. Saline solution was used as a negative control solution (establishing the base level) and carrageen to produce a sensitizing effect (inflammation). […] The following were administered: Riboflavin (alone), Ketorolac (alone), B-Complex (alone), Ketorolac and Riboflavin combination, and Ketorolac and B-Complex combination. Isobolograms were made in order to evaluate the interaction between ketorolac and B-complex using the ED25 values (effective doses) obtained from the dose-response curves for the administered drugs alone or combined.

rats = experiment: Antinociception, formalin test (1% 50 μl), second phase; format: in vivo; settings: rat, phase two; for Emax: read-out: maximum effect (decrease in number of shakes)
Method: We worked with five groups of 8 rats each. The antinociception effect was evaluated via the formalin test (1% 50 μl); rats are placed in an observation chamber made of acrylic material. The nociceptive behavior was evaluated based on the number of shakes at the injected paw.
Used substances: saline solution, formalin (produces nociceptive effect), ketorolac, riboflavin and B-complex (vitamins B1, B6 and B12).
For the dose-response curve, each group received a 0.32-10 mg/kg of ketorolac dose, 6.25-100 mg/kg of riboflavin, 56-316 mg/kg of B-complex, ketorolac-B-complex combination and ketorolac-riboflavin combinations.
The antinociceptive effect was measured for sixty minutes. […] Acute or initial phase from 0 to 10 minutes and tonic phase from 15 to 60 minutes.
Curves for the number of shakes against time were plot and the area under the curve was obtained (AUC) for the second phase, using the trapezoids method.
The dose-response curve for each composition was obtained as the percentage of the maximum possible effect.
The antinociceptive effect of ketorolac, B-complex in ratios of 100:100:1 of B1, B6 and B12 (respectively), riboflavin, ketorolac-B-complex combination, and ketorolac-riboflavin combination were evaluated.
A saline solution was used as a negative control solution (base level).
Administration: riboflavin (alone), ketorolac (alone), B-complex (alone), ketorolac-riboflavin combination, and ketorolac-B-complex combination.

[3] = cited from earlier work; for time to reach maximum plasma concentration (tmax): healthy humans

Row | SMILES | solubility in water [1] | stability when acid solutions are present [2] | antinociceptive effect (area under the latency curve as a function of time), dose-response (rat paw) | ED25 (rats) [mg/kg] | Emax (rats) [%] | time to reach maximum plasma concentration (tmax) ([3]; intramuscular) [min] | time to reach maximum plasma concentration (tmax) ([3]; oral) [min] | excreted in feces ([3]; humans) [%] | excreted in urine ([3]; humans) [%]
1 | O=C(c1ccccc1)c1ccc2n1CCC2C(=O)O (racemic) [ketorolac, (±)-5(benzoyl)-2,3-dihydro-1N-pyrrolizine-1-carboxylic acid tris hydroxy methyl amino methane] | highly soluble | decreases significantly | dose-dependant response | 2.1 ± 0.5 | 36 | 46 | 53 | 6 | 92
2 | Cc1cc2nc3c(=O)[nH]c(=O)nc-3n(C[C@H](O)[C@H](O)[C@H](O)CO)c2cc1C [riboflavin, Riboflavin] | – | – | dose-dependant response | 39.8 ± 7.1 | 33 | – | – | – | –
